Data from US8114859B2, “2-methylene-(20S,25S)-19,27-dinor-(22E)-vitamin D analogs” (Wisconsin Alumni Research Foundation, priority 2006, dated 2012).
Like-named read-outs stand apart in the source and are kept apart here.

Columns and labels:
[1] = Bone calcium mobilization (serum calcium) in vitamin D-deficient rats; type: in vivo, rat; details: FIG. 4; for bone calcium mobilization: ip
Description: (§1) Male, weanling Sprague-Dawley rats were placed on Diet 11 (0.47% Ca) diet+AEK for one week followed by Diet 11 (0.02% Ca)+AEK for 3 weeks. The rats were then switched to a diet containing 0.47% Ca for one week followed by two weeks on a diet containing 0.02% Ca. Dose administration began during the last week on 0.02% calcium diet. Four consecutive ip doses were given approximately 24 hours apart. Twenty-four hours after the last dose, blood was collected from the severed neck and the concentration of serum calcium determined as a measure of bone calcium mobilization. The first 10 cm of the intestine was also collected for intestinal calcium transport analysis using the everted gut sac method.

[2] = system: 24-hydroxylase (24Ohase) gene promoter; test: In vitro transcription assay, luciferase reporter in ROS 17/2.8 (bone) cells; type: cell-based; details: FIG. 3; for EC50: ROS 17/2.8 cells, read-out: EC50, transcriptional activity in bone cells
Description: Transcription activity was measured in ROS 17/2.8 (bone) cells that were stably transfected with a 24-hydroxylase (24Ohase) gene promoter upstream of a luciferase reporter gene (Arbour et al., 1998). Cells were given a range of doses. Sixteen hours after dosing the cells were harvested and luciferase activities were measured using a luminometer.
RLU=Relative Luciferase Units.

[3] = system: HL-60 cells; test: HL-60 differentiation (nitro blue tetrazolium reduction assay); type: cell-based, human; details: FIG. 2; for EC50: read-out: EC50, HL-60 cell differentiation
Description: The study drugs were dissolved in ethanol and the concentrations determined using UV spectrophotometry. Serial dilutions were prepared so that a range of drug concentrations could be tested without changing the final concentration of ethanol (≦0.2%) present in the cell cultures.
Human promyelocytic leukemia (HL60) cells were grown in RPMI-1640 medium containing 10% fetal bovine serum. The cells were incubated at 37° C. in the presence of 5% CO2.
HL60 cells were plated at 1.2×10^5 cells/ml. Eighteen hours after plating, cells in duplicate were treated with drug. Four days later, the cells were harvested and a nitro blue tetrazolium reduction assay was performed (Collins et al., 1979; J. Exp. Med. 149:969-974). The percentage of differentiated cells was determined by counting a total of 200 cells and recording the number that contained intracellular black-blue formazan deposits. Verification of differentiation to monocytic cells was determined by measuring phagocytic activity (data not shown).

[4] = Intestinal calcium transport, everted gut sac method, in vitamin D-deficient rats; type: in vivo, rat; details: FIG. 5; for intestinal calcium transport: everted gut sac
Description: as §1

[5] = molecular target: T1, full-length recombinant rat vitamin D receptor (Rattus norvegicus, UniProt P13053); test: Vitamin D receptor binding, competition with [3H]-1,25(OH)2D3; details: FIG. 1
T1 construct: Full-length recombinant rat receptor was expressed in E. coli BL21 (DE3) Codon Plus RIL cells; His tag (C); made in house; host or cells: E. coli BL21 (DE3) Codon Plus RIL
T1 sequence (P13053 1-423): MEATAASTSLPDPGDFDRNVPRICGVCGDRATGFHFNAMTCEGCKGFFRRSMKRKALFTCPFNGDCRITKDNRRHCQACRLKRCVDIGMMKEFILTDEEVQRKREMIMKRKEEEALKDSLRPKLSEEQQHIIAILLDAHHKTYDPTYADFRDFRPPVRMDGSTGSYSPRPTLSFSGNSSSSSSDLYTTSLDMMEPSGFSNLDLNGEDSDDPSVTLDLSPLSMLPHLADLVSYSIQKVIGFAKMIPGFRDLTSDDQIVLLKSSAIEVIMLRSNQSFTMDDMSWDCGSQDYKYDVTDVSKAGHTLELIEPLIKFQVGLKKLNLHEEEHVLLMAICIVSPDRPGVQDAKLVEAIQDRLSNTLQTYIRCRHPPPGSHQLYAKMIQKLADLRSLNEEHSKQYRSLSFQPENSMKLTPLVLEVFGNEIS
Description: Full-length recombinant rat receptor was expressed in E. coli BL21 (DE3) Codon Plus RIL cells and purified to homogeneity using two different column chromatography systems. The first system was a nickel affinity resin that utilizes the C-terminal histidine tag on this protein. The protein that was eluted from this resin was further purified using ion exchange chromatography (S-Sepharose Fast Flow). Aliquots of the purified protein were quick frozen in liquid nitrogen and stored at −80° C. until use. For use in binding assays, the protein was diluted in TEDK50 (50 mM Tris, 1.5 mM EDTA, pH7.4, 5 mM DTT, 150 mM KCl) with 0.1% Chaps detergent. The receptor protein and ligand concentration were optimized such that no more than 20% of the added radiolabeled ligand was bound to the receptor.
Radiolabeled and unlabeled ligands were added to 100 mcl of the diluted protein at a final ethanol concentration of ≦10%, mixed and incubated overnight on ice to reach binding equilibrium. The following day, 100 mcl of hydroxylapatite slurry (50%) was added to each tube and mixed at 10-minute intervals for 30 minutes. The hydroxylapaptite was collected by centrifugation and then washed three times with Tris-EDTA buffer (50 mM Tris, 1.5 mM EDTA, pH 7.4) containing 0.5% Titron X-100. […] Total binding was determined from the tubes containing only radiolabeled ligand.

| Compound | serum calcium levels ([1]; all dosages, rats on low calcium diet (0.02%)) | EC50 [2] [nM] | EC50 [3] [nM] | intestinal calcium transport ([4]; 260 pmol/day) | bone calcium mobilization ([1]; 260 pmol/day for 4 consecutive days, rats on low calcium diet (0.02%)) | bone calcium mobilization ([1]; 7020 pmol/day, rats on low calcium diet (0.02%)) | bone calcium mobilization activity compared to 1,25(OH)2D3 ([1]; in words, overall) | transcriptional activity in bone cells compared to 1α,25-dihydroxyvitamin D3 ([2]; in words) | EC50 ([3]; Homo sapiens, HL-60) [nM] | potency on HL-60 cell differentiation compared to 1,25(OH)2D3 ([3]; in words) | Ki ([5]; full-length recombinant rat VDR) [nM] | binding to the receptor compared to 1,25-(OH)2D3 ([5]; in words) | intestinal calcium transport ([4]; 7020 pmol/day) | intestinal calcium transport activity compared to 1,25(OH)2D3 ([4]; in words, overall) |
| --- | --- | --- | --- | --- | --- | --- | --- | --- | --- | --- | --- | --- | --- | --- |
| C=C1/C(=C\C=C2/CCC[C@]3(C)[C@@H]([C@H](C)CCCC(C)(C)O)CC[C@@H]23)C[C@@H](O)C[C@@H]1O [1,25(OH)2D3, 1α,25-dihydroxyvitamin D3, reference compound] | increased serum calcium levels at all dosages | 0.2 | 2 | promotes a significant increase |  |  |  |  |  |  |  |  |  |  |
| C=C1[C@H](O)CC(=C/C=C2\CCC[C@]3(C)[C@@H]([C@@H](C)/C=C/C[C@H](C)O)CC[C@@H]23)C[C@H]1O [SS-22, 2-methylene-(20S,25S)-19,27-dinor-(22E)-1α,25-dihydroxyvitamin D3] |  | 0.1 |  | promotes intestinal calcium transport only slightly | did not result in mobilization of bone calcium | without any substantial effect | very little bone calcium mobilization activity | about the same transcriptional activity | 1 | as potent as 1,25(OH)2D3 | 0.3 | bound equally to the receptor | significant intestinal calcium transport activity was recorded | very little activity |
